Source: paper PMC4275348 (Molecular microbiology, 2014)
Positions count from the first letter of the chain named.

Tests used:
luxN^S184I/S230P = molecular target: T1, luxN^S184I/S230P (Vibrio campbellii, UniProt A7MRY4, S184I/S230P); experiment: Bioluminescence of V. harveyi XK006 carrying luxN S184I/S230P; format: cell-based, Vibrio harveyi
T1 sequence (A7MRY4 1-849 S184I/S230P): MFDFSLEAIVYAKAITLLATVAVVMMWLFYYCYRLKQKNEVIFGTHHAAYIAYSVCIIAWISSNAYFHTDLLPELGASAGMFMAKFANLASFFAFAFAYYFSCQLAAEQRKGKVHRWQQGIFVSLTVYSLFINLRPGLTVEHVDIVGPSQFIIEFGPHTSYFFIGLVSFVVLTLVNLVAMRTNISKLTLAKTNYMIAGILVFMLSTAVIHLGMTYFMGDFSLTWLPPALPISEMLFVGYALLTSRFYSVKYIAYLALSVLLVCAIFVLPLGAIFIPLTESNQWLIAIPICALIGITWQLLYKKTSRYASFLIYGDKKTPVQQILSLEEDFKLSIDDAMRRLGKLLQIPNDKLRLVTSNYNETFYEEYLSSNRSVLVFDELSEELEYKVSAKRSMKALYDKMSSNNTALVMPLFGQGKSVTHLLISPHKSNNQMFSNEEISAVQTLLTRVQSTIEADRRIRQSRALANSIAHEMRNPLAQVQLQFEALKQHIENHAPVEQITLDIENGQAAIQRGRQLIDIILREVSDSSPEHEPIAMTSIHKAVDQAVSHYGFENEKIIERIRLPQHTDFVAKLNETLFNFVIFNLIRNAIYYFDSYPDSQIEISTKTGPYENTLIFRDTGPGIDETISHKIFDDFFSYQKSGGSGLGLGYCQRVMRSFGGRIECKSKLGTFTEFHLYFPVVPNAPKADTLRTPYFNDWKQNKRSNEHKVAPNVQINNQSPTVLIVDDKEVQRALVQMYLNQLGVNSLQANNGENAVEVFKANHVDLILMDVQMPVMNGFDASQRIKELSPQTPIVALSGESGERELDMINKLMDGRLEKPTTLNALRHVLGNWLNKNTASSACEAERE

WT LuxN = WT LuxN (Vibrio campbellii, UniProt A7MRY4); details: 100 nM AI-1; XK847
luxN^T159I/Y193K = molecular target: T2, luxN^T159I/Y193K (Vibrio campbellii, UniProt A7MRY4, N193K/T159I); experiment: Bioluminescence of V. harveyi XK006 carrying luxN T159I/Y193K; format: cell-based, Vibrio harveyi
T2 sequence (A7MRY4 1-849 T159I/N193K): T1 sequence (A7MRY4 1-849 S184I/S230P) with T159I, I184S, N193K, P230S

LuxN^H210Q = molecular target: T3, LuxN^H210Q (Vibrio campbellii, UniProt A7MRY4, H210Q); experiment: Bioluminescence of V. harveyi XK006 carrying luxN H210Q; format: cell-based, Vibrio harveyi; details: 1 μM AHL
T3 sequence (A7MRY4 1-849 H210Q): T1 sequence (A7MRY4 1-849 S184I/S230P) with I184S, H210Q, P230S

Question: Which “response (dose-dependent light production)” value (luxN^S184I/S230P) does the source give for `C[C@@H](O)CC(=O)N[C@H]1CCOC1=O` [3OH-C4 HSL, N-((R)-3-hydroxybutanoyl)-L-homoserine lactone] here?
Answer: Its value is “most potent agonist”.

Question: What about the “increase in light production” value (WT LuxN) of the same compound?
Answer: Its value is 1000 fold.

Question: What about the “response (dose-dependent light production)” value (luxN^T159I/Y193K) of the same compound?
Answer: The value was “most potent agonist”.

Question: What about the “induction of light production” value (LuxN^H210Q) of the same compound?
Answer: The value was 50 fold.
